Consider three molecules from PMC9221290, “Alkaloids of Dicranostigma franchetianum (Papaveraceae) and Berberine Derivatives as a New Class of Antimycobacterial Agents” (Biomolecules, 2022).

Data set [1] has as its system Mycolicibacterium smegmatis DSM 43465 (ATCC 607). The experiment in a line: Antimycobacterial microdilution broth assay (resazurin), M. smegmatis. As to conditions: Mycolicibacterium smegmatis, 48 h. It is filed as cell-based. On the technique in general: Broth dilution looks for growth in wells or tubes with falling amounts of substance.
For data set [2], the system named is five Mycobacterium or Mycolicibacterium strains. The data set can be described thus: organism not typed. The data set is classed as cell-based. As to conditions: read-out: MICs against all tested mycobacterial strains.
The nature of another data set: in vitro. As to conditions: human, % of cell viability compared to control; for viability at 0.1 µM: HepG2, 0.1 µM; for viability at 1 µM: HepG2, 1 µM; for viability at 5 µM: HepG2, 5 µM; for viability at 10 µM: HepG2, 10 µM; for viability at 20 µM: HepG2, 20 µM; for viability at 30 µM: HepG2, 30 µM; for viability at 40 µM: HepG2, 40 µM; for viability at 50 µM: HepG2, 50 µM.

Data set [3] concerns Mycobacterium kansasii DSM 44162 (ATCC 12478). The experiment in a line: Antimycobacterial microdilution broth assay (resazurin), M. kansasii. The data set is classed as cell-based. As to conditions: Mycobacterium kansasii, 96 h.
In data set [4] the test system is Mycobacterium avium DSM 44156 (ATCC 25291). The experiment in a line: Antimycobacterial microdilution broth assay (resazurin), M. avium. The data set is classed as cell-based. As to conditions: Mycobacterium avium, 96 h, read-out: MIC M. avium, microdilution broth, resazurin, 96 h.
Data set [5] relates to Mycolicibacterium aurum DSM 43999 (ATCC 23366). The experiment in a line: Antimycobacterial microdilution broth assay (resazurin), M. aurum. As to conditions: Mycolicibacterium aurum, 72 h. The data set is classed as cell-based.
In data set [6] the test system is HepG2 cells. The data set can be described thus: cells. As to conditions: Homo sapiens, HepG2, 24 h.
In data set [7] the test system is HepG2 cells.
Data set [8] has as its system Mtb H37Ra ITM-M006710 (ATCC 9431). The experiment in a line: Antimycobacterial microdilution broth assay (resazurin), Mtb H37Ra. The data set is classed as cell-based, Mycobacterium tuberculosis. As to conditions: Mycobacterium tuberculosis, read-out: MIC Mtb H37Ra.
Another data set concerns Aspergillus fumigatus. The arrangement: method as in PMID 21341176. As to conditions: read-out: IC50 against Aspergillus fumigatus; cited from earlier work.
Data set [9] has as its system methicillin-resistant Staphylococcus aureus. The arrangement: method as in PMID 21341176. As to conditions: read-out: IC50 against methicillin-resistant Staphylococcus aureus; cited from earlier work.
In a further data set the test system is M. intracellulare. As to conditions: cited from earlier work.
A further data set concerns pulmonary tuberculosis. The arrangement: method as in PMID 34745081. As to conditions: mice with pulmonary tuberculosis; cited from earlier work.
The subject of data set [10] is Mycolicibacterium smegmatis. Further details: method as in PMID 9784149. As to conditions: cited from earlier work.
The mark [11] stands for this setting: read-out: MIC M. smegmatis, microdilution broth, resazurin, 48 h.
Setting [12] is: read-out: MIC M. kansasii, microdilution broth, resazurin, 96 h.
The mark [13] stands for this setting: read-out: MIC M. aurum, microdilution broth, resazurin, 72 h.
[14] abbreviates: read-out: HepG2 IC50, MTT, 24 h incubation.
Setting [15] is: 120 h, microdilution broth, resazurin, 120 h.
Where [16] appears, read: calculated from MIC (µg/mL) and MW.

In brackets after ≈: the same amount, converted by molar mass. Read-outs that look alike come from different tables or passages of the source.

In general, viability refers to a read-out of living cells in per cent, often relative to untreated cells. In general, IC50 refers to the concentration needed to halve the response being measured. Consider `COc1ccc2cc3[n+](cc2c1OCc1ccccc1Br)CCc1cc2c(cc1-3)OCO2` [16e, 9-O-(2-brombenzyl)berberine chloride], for which the MIC in data set [1] (setting [11]) was 0.39 µg/mL; in [2], 0.39 to 3.12 µg/mL; in [3] (setting [12]), 3.12 µg/mL; in data set [4], 1.56 µg/mL; in [5] (setting [13]), 0.78 µg/mL; in data set [8] (setting [15]) it was 1.56 µg/mL. In [8] (setting [16]), the MIC is 2.96 µM. Moreover, the values for the viability at 0.1 µM in “in vitro” (1. measurement), in the data set “in vitro” (2. measurement) and in the data set “in vitro” (3. measurement) were 102%, 95.5% and 92%, respectively. Besides, the viability at 1 µM is 96.3% in “in vitro” (1. measurement), 93.8% in the data set “in vitro” (2. measurement) and 98.5% in “in vitro” (3. measurement). In addition, the viability at 5 µM in the data set “in vitro” (1. measurement) is 66.9%; in the data set “in vitro” (2. measurement), 66.2%; in “in vitro” (3. measurement), 68%. Besides, the viability at 10 µM in the data set “in vitro” (1. measurement) amounted to 48.6%; in the data set “in vitro” (2. measurement) it was 53.6%; in “in vitro” (3. measurement), 53.7%. Moreover, the viability at 20 µM was 40.7% in “in vitro” (1. measurement), 46.1% in “in vitro” (2. measurement) and 45.1% in “in vitro” (3. measurement). Also, the viability at 30 µM in the data set “in vitro” (1. measurement) amounted to 34.3%; in “in vitro” (2. measurement), 36.5%; in “in vitro” (3. measurement), 34.5%. For the same molecule, the values for the viability at 40 µM in the data set “in vitro” (1. measurement), in the data set “in vitro” (2. measurement) and in “in vitro” (3. measurement) were 24.6%, 16.2% and 14.8%, respectively. In addition, the viability at 50 µM in “in vitro” (1. measurement) came out at 10.5%; in “in vitro” (2. measurement), 2.08%; in “in vitro” (3. measurement), 2.75%. Moreover, the IC50 in the data set with HepG2 cells [6] (read-out: HepG2 IC50, 1. measurement, MTT, 24 h, single measurement 1) was 11.5 µM; in the data set on HepG2 cells [6] (read-out: HepG2 IC50, 2. measurement, MTT, 24 h, single measurement 2), 11.8 µM; in the data set on HepG2 cells [6] (read-out: HepG2 IC50, 3. measurement, MTT, 24 h, single measurement 3) it was 12 µM; with HepG2 cells [6] (setting [14]), 11.6 ± 0.29 µM; in the data set with HepG2 cells [7] (setting [14]), 11.8 ± 0.29 µM. For the same molecule, in the data set on HepG2 cells [7], the “SI (selectivity index)” value came to 3.92.
On to `COc1ccc2c(c1OC)C(OC1c3c(ccc(OC)c3OC)-c3ccc4cc5c(cc4c3N1C)OCO5)N(C)c1c-2ccc2cc3c(cc12)OCO3` (stereo not drawn) [compound 5, bis-[6-(5,6-dihydrochelerythrinyl)]ether], for which the MIC is 31.2 µg/mL (≈ 43.8 µM) in data set [1] (setting [11]); 15.6 to 31.2 µg/mL (≈ 21.9 to 43.8 µM) in [2]; 31.2 µg/mL (≈ 43.8 µM) in data set [3] (setting [12]); 31.2 µg/mL (≈ 43.8 µM) in data set [4]; 31.2 µg/mL (≈ 43.8 µM) in data set [5] (setting [13]); 31.2 µg/mL in [8] (setting [15]). The MIC in [8] (setting [16]) is 44 µM. In addition, the IC50 with Aspergillus fumigatus is 0.9 µM; in [9], 1 µM.
Regarding `COc1ccc2cc3[n+](cc2c1OC)CCc1cc2c(cc1-3)OCO2` [compound 16, berberine], the MIC in data set [1] (microdilution broth, resazurin, read-out: MIC M. smegmatis) was 62.5 µg/mL; in data set [3] (read-out: MIC M. kansasii) it was 31.2 µg/mL; in [4], 31.2 µg/mL; in data set [5] (read-out: MIC M. aurum), 62.5 µg/mL; in [8] (setting [15]), 125 µg/mL; in data set [8] (setting [16]), 336 µM. Moreover, the results for the “MIC against M. intracellulare” value with M. intracellulare and in the data set on M. intracellulare (ref Gentry et al. 1998) were 1.56 µg/mL and 200 µg/mL, respectively. In the data set on pulmonary tuberculosis, the “effects on bacterial burden” value is “no additive or synergistic effects”. Besides, in the data set on pulmonary tuberculosis, the lung pathology entry is reported as “decreased lung pathology”. Also, the “MIC against Mycolicibacterium smegmatis” value in data set [10] is 25 µg/mL.
